Experimental data reported in ChEMBL document CHEMBL3232866, “Design of novel potent antihyperlipidemic agents with antioxidant/anti-inflammatory properties: exploiting phenothiazine's strong antioxidant activity” (J Med Chem, 2014).
The source made the active and inactive calls. The rule behind the calls is not given here.

Tests used:
Mus musculus [1] = assay: Antidyslipidemic activity in high-fat diet (35.5% w/w fat) fed SKH-2 mouse assessed as triglyceride level in plasma at 56 umol/kg, ip bid for 28 days measured on day 28; format: functional, organism-based
[2] = system: Radical scavenging activity; assay: Antioxidant activity assessed as DPPH radical scavenging activity after 30 mins; format: functional
Mus musculus [3] = assay: In vivo antiinflammatory activity in mouse assessed as decrease in carrageenan-induced paw edema at 0.30 mmol/kg, ip administered immediately after carrageenan injection measured after 3.5 hrs; format: functional
Rattus norvegicus [4] = assay: In vivo antidyslipidemic activity against Triton WR 1339-induced hyperlipidemic Wistar rat model assessed as decrease in total cholesterol level in plasma at 56 umol/kg, ip administered as single dose 1 hr after Triton WR 1339 challenge measured after 24 hrs; format: functional
Mus musculus [5] = assay: In vivo antioxidant activity in high-fat diet (35.5% w/w fat) fed SKH-2 mouse assessed as reduction in malondialdehyde level in plasma at 56 umol/kg, ip bid for 28 days measured on day 28; format: functional; settings: SKH-2, Plasma, 672 h
Homo sapiens [6] = species: Homo sapiens; assay: Antioxidant activity against CuSO4-induced human LDL oxidation assessed as delta-lag time at 0.10 uM by spectrophotometric analysis; format: functional
Homo sapiens [7] = species: Homo sapiens; assay: Antioxidant activity against CuSO4-induced human LDL oxidation assessed as increase in lag time at 0.10 uM by spectrophotometric analysis; format: functional
Mus musculus [8] = assay: Antidyslipidemic activity in high-fat diet (35.5% w/w fat) fed SKH-2 mouse assessed as HDL level in plasma at 56 umol/kg, ip bid for 28 days measured on day 28; format: functional, organism-based
Mus musculus [9] = assay: Effect on body weight in high-fat diet (35.5% w/w fat) fed SKH-2 mouse at 56 umol/kg, ip bid for 28 days; format: ADME, organism-based; settings: in vivo, 672 h
Homo sapiens [10] = species: Homo sapiens; assay: Antioxidant activity against CuSO4-induced human LDL oxidation assessed as delta-lag time at 0.50 uM by spectrophotometric analysis; format: functional
Homo sapiens [11] = species: Homo sapiens; assay: Antioxidant activity against CuSO4-induced human LDL oxidation assessed as lag time at 0.50 uM by spectrophotometric analysis (reference value: 122 mins); format: functional
Homo sapiens [12] = species: Homo sapiens; assay: Antioxidant activity against CuSO4-induced human LDL oxidation assessed as prolongation of lag time by spectrophotometric analysis; format: functional
Rattus norvegicus [13] = assay: In vivo antidyslipidemic activity against Triton WR 1339-induced hyperlipidemic Wistar rat model assessed as decrease in triglyceride level in plasma at 56 umol/kg, ip administered as single dose 1 hr after Triton WR 1339 challenge measured after 24 hrs; format: functional
Homo sapiens [14] = species: Homo sapiens; assay: Antioxidant activity against CuSO4-induced human LDL oxidation assessed as lag time at 0.10 uM by spectrophotometric analysis (reference value: 122 mins); format: functional
Mus musculus [15] = assay: Toxicity in high-fat diet (35.5% w/w fat) fed SKH-2 mouse at 56 umol/kg, ip bid for 28 days by macroscopic analysis; format: organism-based; settings: in vivo, 672 h
[16] = target: T1, Prostaglandin G/H synthase 1 (Bos taurus) (UniProt O62664); assay: Inhibition of bovine COX-1 assessed as PGF2-alpha formation using arachidonic acid as substrate at 20 uM by enzyme immunoassay
T1 sequence (whole entry): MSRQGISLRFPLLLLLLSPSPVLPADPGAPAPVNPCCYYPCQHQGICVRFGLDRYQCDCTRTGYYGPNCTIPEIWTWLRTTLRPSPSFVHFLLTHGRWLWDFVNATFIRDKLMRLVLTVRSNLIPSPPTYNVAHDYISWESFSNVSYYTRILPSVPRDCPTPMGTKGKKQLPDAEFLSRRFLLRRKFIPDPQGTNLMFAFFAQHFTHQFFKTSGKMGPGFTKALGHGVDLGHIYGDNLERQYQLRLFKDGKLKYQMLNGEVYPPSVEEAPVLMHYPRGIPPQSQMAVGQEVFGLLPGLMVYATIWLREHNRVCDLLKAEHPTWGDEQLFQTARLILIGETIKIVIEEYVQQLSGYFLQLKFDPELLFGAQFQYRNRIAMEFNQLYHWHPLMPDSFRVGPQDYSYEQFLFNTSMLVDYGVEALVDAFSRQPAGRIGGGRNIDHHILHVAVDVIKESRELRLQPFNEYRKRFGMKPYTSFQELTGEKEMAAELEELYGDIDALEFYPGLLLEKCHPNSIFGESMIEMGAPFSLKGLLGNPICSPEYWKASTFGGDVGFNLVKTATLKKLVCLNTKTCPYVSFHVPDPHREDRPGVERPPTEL

Homo sapiens [17] = species: Homo sapiens; assay: Antioxidant activity against CuSO4-induced human LDL oxidation assessed as inhibition of rate of conjugate diene formation at 0.50 uM by spectrophotometric analysis; format: functional
Homo sapiens [18] = species: Homo sapiens; assay: Antioxidant activity against CuSO4-induced human LDL oxidation assessed as inhibition of rate of conjugate diene formation at 0.10 uM by spectrophotometric analysis; format: functional
Mus musculus [19] = assay: Effect on food intake high-fat diet fed SKH-2 mouse at 56 umol/kg, ip bid for 28 days; format: ADME, organism-based; settings: in vivo, 672 h
[20] = system: Radical scavenging activity; assay: Antioxidant activity assessed as DPPH radical scavenging activity up to 50 uM measured within 15 mins; format: functional
Homo sapiens [21] = species: Homo sapiens; assay: Antioxidant activity against CuSO4-induced human LDL oxidation assessed as inhibition of rate of conjugate diene formation at 1 uM by spectrophotometric analysis; format: functional
Mus musculus [22] = assay: Antidyslipidemic activity in high-fat diet (35.5% w/w fat) fed SKH-2 mouse assessed as decrease in total cholesterol level in plasma at 56 umol/kg, ip bid for 28 days measured on day 28; format: functional; settings: SKH-2, Plasma, 672 h
Mus musculus [23] = assay: Antidyslipidemic activity in high-fat diet (35.5% w/w fat) fed SKH-2 mouse assessed as decrease in LDL level in plasma at 56 umol/kg, ip bid for 28 days measured on day 28; format: functional; settings: SKH-2, Plasma, 672 h
Mus musculus [24] = assay: Effect on blood glucose level in high-fat diet (35.5% w/w fat) fed SKH-2 mouse at 56 umol/kg, ip bid for 28 days; format: ADME, organism-based; settings: in vivo, 672 h
[25] = Antioxidant activity in rat liver microsome membrane assessed as inhibition of lipid peroxidation after 45 mins by TBARS-based spectrophotometric assay; format: functional, microsomes
Homo sapiens [26] = species: Homo sapiens; assay: Antioxidant activity against CuSO4-induced human LDL oxidation assessed as increase in lag time at 0.50 uM by spectrophotometric analysis; format: functional
Mus musculus [27] = assay: Antidyslipidemic activity in high-fat diet (35.5% w/w fat) fed SKH-2 mouse assessed as HDL/LDL ratio in plasma at 56 umol/kg, ip bid for 28 days measured on day 28 (reference value: 0.5 no unit); format: functional
Homo sapiens [28] = species: Homo sapiens; assay: Antioxidant activity against CuSO4-induced human LDL oxidation assessed as increase in lag time at 1 uM by spectrophotometric analysis; format: functional
Rattus norvegicus [29] = assay: In vivo antidyslipidemic activity against Triton WR 1339-induced hyperlipidemic Wistar rat model assessed as decrease in LDL-cholesterol level in plasma at 56 umol/kg, ip administered as single dose 1 hr after Triton WR 1339 challenge measured after 24 hrs; format: functional
Squalene synthase = target: T2, Squalene synthase (Rattus norvegicus, UniProt Q02769); assay: (§1) Inhibition of squalene synthase in rat liver microsomes assessed as decrease in conversion of [3H]FPP to squalene
T2 sequence (Q02769 whole entry): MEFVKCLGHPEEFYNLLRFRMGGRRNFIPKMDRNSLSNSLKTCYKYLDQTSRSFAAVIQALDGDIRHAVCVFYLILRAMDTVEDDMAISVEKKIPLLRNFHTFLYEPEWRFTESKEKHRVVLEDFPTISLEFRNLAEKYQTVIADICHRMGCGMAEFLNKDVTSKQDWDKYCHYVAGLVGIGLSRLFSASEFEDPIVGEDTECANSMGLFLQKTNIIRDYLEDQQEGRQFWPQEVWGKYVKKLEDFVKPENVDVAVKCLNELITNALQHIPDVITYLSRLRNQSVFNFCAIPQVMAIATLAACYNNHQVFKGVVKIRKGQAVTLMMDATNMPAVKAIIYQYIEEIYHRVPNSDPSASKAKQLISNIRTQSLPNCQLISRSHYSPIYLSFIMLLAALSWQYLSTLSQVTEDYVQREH

[30] = target: T3, Squalene synthase (Rattus norvegicus) (UniProt Q02769); assay: as §1
T3 sequence (whole entry): T2 sequence (Q02769 whole entry)

Glycine max = assay: Inhibition of soybean lipoxygenase using sodium linoleate as substrate up to 100 uM measured for 6 mins

Q: Which results are given for `CN1CC(O)(c2ccc3c(c2)Nc2ccccc2S3)OC2CCCCC21` (racemic)?
A: Activity (Mus musculus [1]): inactive; IC50 [2]: 188 µM; inhibition in vivo at 300 µmol/kg (Mus musculus [3]): 41%; inhibition in vivo at 56 µmol/kg (Rattus norvegicus [4]): 50%; inhibition in vivo at 56 µmol/kg (Mus musculus [5]): 38%; TIME (Homo sapiens [6]): -0.217 h; Activity (Homo sapiens [7]): 0%; Activity (Mus musculus [8]): inactive; Activity (Mus musculus [9]): Non-toxic; TIME (Homo sapiens [10]): 1.3 h; TIME (Homo sapiens [11]): 3.33 h; Activity (Homo sapiens [12]): Dose-dependent effect; inhibition in vivo at 56 µmol/kg (Rattus norvegicus [13]): 77%; TIME (Homo sapiens [14]): 1.82 h; Activity (Mus musculus [15]): Non-toxic; inhibition [16]: 55%; inhibition (Homo sapiens [17]): 41%; inhibition (Homo sapiens [18]): 0%; Activity (Mus musculus [19]): Non-toxic; Activity [20]: Active; inhibition (Homo sapiens [21]): 100%; inhibition in vivo at 56 µmol/kg (Mus musculus [22]): 54%; inhibition in vivo at 56 µmol/kg (Mus musculus [23]): 76%; Activity (Mus musculus [24]): Non-toxic; IC50 [25]: 0.93 µM; Activity (Homo sapiens [26]): 64%; Ratio (Mus musculus [27]): 1.7; Activity (Homo sapiens [28]): 100%; inhibition in vivo at 56 µmol/kg (Rattus norvegicus [29]): 68%; IC50 (Squalene synthase): 11.9 µM; inhibition [30]: Dose-dependent effect; inhibition (Glycine max): inactive
